In ChEMBL document CHEMBL1201862, “PubChem BioAssay data set” (2004):
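Growth conditions: 96-well plates. Treatment: test compound, 48 hours, 5 concentrations. Analysis: linear interpolation between bracketing concentrations; unreached endpoints set to highest concentration. GI50 = concentration required for 50% inhibition of growth.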 The source made the active and inactive calls. Rule as the data show it: active = GI50 up to about 1.1 µM and inactive = higher.

Experiments:
Experiment in all cases: NCI anticancer screen, dose series, 48 h
LXFL 529 = tested on: LXFL 529
TK-10 = tested on: TK-10
SF-539 = tested on: SF-539
NCI/ADR-RES = tested on: NCI/ADR-RES
RXF 631 = tested on: RXF 631
NCI-H460 = tested on: NCI-H460
DLD-1 = tested on: DLD-1
786-0 = tested on: 786-0
SK-OV-3 = tested on: SK-OV-3
NCI-H23 = tested on: NCI-H23
HCC 2998 = tested on: HCC 2998
KM-20L2 = tested on: KM-20L2
SN12C = tested on: SN12C
SW-620 = tested on: SW-620
SF-268 = tested on: SF-268
OVCAR-3 = tested on: OVCAR-3
ACHN = tested on: ACHN
UACC-257 = tested on: UACC-257
EKVX = tested on: EKVX
HOP-92 = tested on: HOP-92
KM12 = tested on: KM12
DMS-114 = tested on: DMS-114
A498 = tested on: A498
MOLT-4 = tested on: MOLT-4
MDA-N = tested on: MDA-N
NCI-H226 = tested on: NCI-H226
U-251 = tested on: U-251
SR = tested on: SR
SK-MEL-5 = tested on: SK-MEL-5
HOP-62 = tested on: HOP-62
HOP-18 = tested on: HOP-18
OVCAR-4 = tested on: OVCAR-4
CCRF-CEM = tested on: CCRF-CEM
UACC-62 = tested on: UACC-62
UO-31 = tested on: UO-31
DMS-273 = tested on: DMS-273
HL-60 = tested on: HL-60
Malme-3M = tested on: Malme-3M
DU-145 = tested on: DU-145
MCF7 = tested on: MCF7
A549 = tested on: A549
IGROV-1 = tested on: IGROV-1
LOX IMVI = tested on: LOX IMVI
SK-MEL-2 = tested on: SK-MEL-2
RPMI-8226 = tested on: RPMI-8226
OVCAR-5 = tested on: OVCAR-5
M19-MEL = tested on: M19-MEL
CAKI-1 = tested on: CAKI-1
HCT-116 = tested on: HCT-116
SNB-75 = tested on: SNB-75
XF498 = tested on: XF498
OVCAR-8 = tested on: OVCAR-8
BT-549 = tested on: BT-549
SNB-78 = tested on: SNB-78
SNB-19 = tested on: SNB-19
HT-29 = tested on: HT-29
SK-MEL-28 = tested on: SK-MEL-28
PC-3 = tested on: PC-3
SF-295 = tested on: SF-295
RXF 393 = tested on: RXF 393
K562 = tested on: K562
T47D = tested on: T47D
HCT-15 = tested on: HCT-15
MDA-MB-435 = tested on: MDA-MB-435
Hs-578T = tested on: Hs-578T
MDA-MB-231 = tested on: MDA-MB-231
M14 = tested on: M14
COLO 205 = tested on: COLO 205
NCI-H522 = tested on: NCI-H522

## CN/N=C(/CCN1CCCC1)CC(c1ccccc1)c1c(O)c2ccccc2oc1=O (centres undefined)
LXFL 529
  GI50: > 100 µM (inactive)
TK-10
  GI50: > 100 µM (inactive)
SF-539
  GI50: > 100 µM (inactive)
NCI/ADR-RES
  GI50: > 100 µM (inactive)
RXF 631
  GI50: > 100 µM (inactive)
NCI-H460
  GI50: > 100 µM (inactive)
DLD-1
  GI50: > 100 µM (inactive)
786-0
  GI50: > 100 µM (inactive)
SK-OV-3
  GI50: > 100 µM (inactive)
NCI-H23
  GI50: > 96.4 µM (inactive)
HCC 2998
  GI50: > 100 µM (inactive)
KM-20L2
  GI50: > 100 µM (inactive)
SN12C
  GI50: > 100 µM (inactive)
SW-620
  GI50: > 100 µM (inactive)
SF-268
  GI50: > 100 µM (inactive)
OVCAR-3
  GI50: > 100 µM (inactive)
ACHN
  GI50: > 100 µM (inactive)
UACC-257
  GI50: > 100 µM (inactive)
EKVX
  GI50: > 100 µM (inactive)
HOP-92
  GI50: 0.804 µM (active)
KM12
  GI50: > 100 µM (inactive)
DMS-114
  GI50: > 100 µM (inactive)
A498
  GI50: > 100 µM (inactive)
MOLT-4
  GI50: > 65.3 µM (inactive)
MDA-N
  GI50: > 100 µM (inactive)
NCI-H226
  GI50: > 65.6 µM (inactive)
U-251
  GI50: > 100 µM (inactive)
SR
  GI50: > 94.6 µM (inactive)
SK-MEL-5
  GI50: > 75.5 µM (inactive)
HOP-62
  GI50: > 100 µM (inactive)
HOP-18
  GI50: > 100 µM (inactive)
OVCAR-4
  GI50: > 100 µM (inactive)
CCRF-CEM
  GI50: > 71.9 µM (inactive)
UACC-62
  GI50: > 100 µM (inactive)
UO-31
  GI50: > 67.1 µM (inactive)
DMS-273
  GI50: > 100 µM (inactive)
HL-60
  GI50: 61.5 µM (inactive)
Malme-3M
  GI50: 39.4 µM (inactive)
DU-145
  GI50: > 100 µM (inactive)
MCF7
  GI50: > 100 µM (inactive)
A549
  GI50: > 100 µM (inactive)
IGROV-1
  GI50: > 100 µM (inactive)
LOX IMVI
  GI50: > 100 µM (inactive)
SK-MEL-2
  GI50: > 100 µM (inactive)
RPMI-8226
  GI50: 25.5 µM (inactive)
OVCAR-5
  GI50: > 100 µM (inactive)
M19-MEL
  GI50: > 100 µM (inactive)
CAKI-1
  GI50: > 100 µM (inactive)
HCT-116
  GI50: > 100 µM (inactive)
SNB-75
  GI50: 19.4 µM (inactive)
XF498
  GI50: > 100 µM (inactive)
OVCAR-8
  GI50: > 100 µM (inactive)
BT-549
  GI50: > 100 µM (inactive)
SNB-78
  GI50: > 100 µM (inactive)
SNB-19
  GI50: > 100 µM (inactive)
HT-29
  GI50: > 100 µM (inactive)
SK-MEL-28
  GI50: > 100 µM (inactive)
PC-3
  GI50: > 100 µM (inactive)
SF-295
  GI50: > 100 µM (inactive)
RXF 393
  GI50: > 100 µM (inactive)
K562
  GI50: > 100 µM (inactive)
T47D
  GI50: 49.4 µM (inactive)
HCT-15
  GI50: > 100 µM
MDA-MB-435
  GI50: > 100 µM (inactive)
Hs-578T
  GI50: > 100 µM (inactive)
MDA-MB-231
  GI50: > 100 µM (inactive)
M14
  GI50: > 100 µM (inactive)
COLO 205
  GI50: 34.9 µM (inactive)
NCI-H522
  GI50: > 100 µM (inactive)
